# Assay results from ChEMBL document CHEMBL1201862, “PubChem BioAssay data set” (2004).
#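 How tested: cells in 96-well plates exposed to compound for 48 hours at five concentrations. GI50 marks 50% less growth.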 Calls of active or inactive are those of the source. No stated cut-off is given here; in the data, active = GI50 up to about 1.1 µM and inactive = higher. *1 amine or outer side, *2 acyl side, *3 side chain or, on linkers, in order; H or OH if unused. Where a SMILES comes first, the peptide text is derived from it. Square brackets hold non-standard residues; d marks the D form. Peptide text beside a SMILES is read from it. [ ]: non-standard residue; d: D form. The star is where a group is joined. * marks the point of attachment. ξ: configuration not given here. NMeY = CN[C@@H](Cc1ccc(O)cc1)C(=O)O; Ethylenediamine = C(CN[*:2])N[*:1]; ξNMeL = CNC(CC(C)C)C(=O)O; Cbz = O=C(OCc1ccccc1)*; Lac = C[C@H](O)C(=O)O; ξA = CC(N)C(=O)O
# Key:
# Test in all cases: NCI tumour cell line growth inhibition, 48 h
# ACHN = system: ACHN
# BT-549 = system: BT-549
# CCRF-CEM = system: CCRF-CEM
# DU-145 = system: DU-145
# HCC 2998 = system: HCC 2998
# HOP-62 = system: HOP-62
# HOP-92 = system: HOP-92
# K562 = system: K562
# MCF7 = system: MCF7
# MDA-N = system: MDA-N
# NCI-H23 = system: NCI-H23
# OVCAR-3 = system: OVCAR-3
# OVCAR-4 = system: OVCAR-4
# SF-295 = system: SF-295
# SK-OV-3 = system: SK-OV-3
# SR = system: SR
# TK-10 = system: TK-10
# U-251 = system: U-251
# UACC-257 = system: UACC-257
# M19-MEL = system: M19-MEL
SMILES,GI50 (ACHN),GI50 (BT-549),GI50 (CCRF-CEM),GI50 (DU-145),GI50 (HCC 2998),GI50 (HOP-62),GI50 (HOP-92),GI50 (K562),GI50 (MCF7),GI50 (MDA-N),GI50 (NCI-H23),GI50 (OVCAR-3),GI50 (OVCAR-4),GI50 (SF-295),GI50 (SK-OV-3),GI50 (SR),GI50 (TK-10),GI50 (U-251),GI50 (UACC-257),GI50 (M19-MEL)
COC(=O)CCC(C)[C@H]1CCC2C3C(C[C@H](OC(C)=O)[C@@]21C)[C@@]1(C)CCC2(C[C@H]1C[C@H]3OC(C)=O)OOC1(CCCCC1)OO2 (some centres undefined),11.2 µM (inactive),40.6 µM (inactive),4.27 µM (inactive),41.5 µM (inactive),28.3 µM (inactive),2.99 µM (inactive),1.02 µM (active),10.3 µM (inactive),22.3 µM (inactive),33.9 µM (inactive),12.7 µM (inactive),40.5 µM (inactive),15.8 µM (inactive),20.7 µM (inactive),54.5 µM (inactive),4.26 µM (inactive),> 100 µM (inactive),12.7 µM (inactive),19.1 µM (inactive),
NS(=O)(=O)c1ccc(Nc2c3ccccc3nc3c(C(=O)NCCCN(CCO)CCO)cccc23)cc1,37.2 µM (inactive),20.4 µM (inactive),8.41 µM (inactive),29.9 µM (inactive),17.7 µM (inactive),24.8 µM (inactive),26.3 µM (inactive),18.7 µM (inactive),4.8 µM (inactive),19.8 µM (inactive),23.4 µM (inactive),24.3 µM (inactive),31.3 µM (inactive),36.2 µM (inactive),27.2 µM (inactive),12.8 µM (inactive),36.6 µM (inactive),13.9 µM (inactive),31 µM (inactive),
CC(=O)Nc1ccc(-c2nnc(SCC(=O)Nc3ccc(Cl)cc3)o2)cc1,12.7 µM (inactive),,3.5 µM (inactive),,17 µM (inactive),22.4 µM (inactive),,5.83 µM (inactive),,,3.39 µM (inactive),9.06 µM (inactive),13.1 µM (inactive),11.3 µM (inactive),16.4 µM (inactive),,18.4 µM (inactive),3.38 µM (inactive),16.4 µM (inactive),11.7 µM (inactive)
CC(=O)O[C@H]1CC[C@@]2(C)C(=CC[C@@H]3C2CC[C@]2(C)Nc4nc5ccccc5cc4CC32)C1 (some centres undefined),4.72 µM (inactive),,3.54 µM (inactive),,2.98 µM (inactive),13.3 µM (inactive),,3.21 µM (inactive),,,12.4 µM (inactive),2.5 µM (inactive),8.53 µM (inactive),3.78 µM (inactive),2.82 µM (inactive),,5.31 µM (inactive),2.67 µM (inactive),3.66 µM (inactive),3.59 µM (inactive)
O=C(C/N=C(\CN(c1ccccc1)c1ccccc1)Oc1c(Cl)cc(Cl)cc1Cl)N1c2ccccc2Sc2ccccc21,39.9 µM (inactive),17.3 µM (inactive),41.8 µM (inactive),> 100 µM (inactive),36.7 µM (inactive),> 100 µM (inactive),21.9 µM (inactive),> 10 µM (inactive),32.3 µM (inactive),51.1 µM (inactive),40.2 µM (inactive),46.8 µM (inactive),88.7 µM (inactive),> 100 µM (inactive),29.6 µM (inactive),35.2 µM (inactive),43.9 µM (inactive),53.5 µM (inactive),> 100 µM (inactive),
COc1c2c(c(OC)c3c(=O)cc(C/C(=N/NC(=O)C[n+]4ccccc4)C(=O)Nc4cc(C)ccc4C)oc13)OCO2,> 100 µM (inactive),,> 100 µM (inactive),,> 100 µM (inactive),> 100 µM (inactive),> 100 µM (inactive),> 100 µM (inactive),,,> 100 µM (inactive),> 100 µM (inactive),> 100 µM (inactive),,> 100 µM (inactive),,> 100 µM (inactive),> 100 µM (inactive),> 100 µM (inactive),> 100 µM (inactive)
CC1CC(=O)N(N(C)C)C(C#N)(C#N)C1(C#N)C#N (centres undefined),15.4 µM (inactive),15.7 µM (inactive),0.638 µM (active),18.2 µM (inactive),18.5 µM (inactive),26.1 µM (inactive),7.6 µM (inactive),2.81 µM (inactive),22.4 µM (inactive),18.1 µM (inactive),20 µM (inactive),20.5 µM (inactive),18.3 µM (inactive),> 50.1 µM (inactive),29.5 µM (inactive),4.99 µM (inactive),16 µM (inactive),20.9 µM (inactive),15.1 µM (inactive),
CC1CCC(C(C)(C)c2ccccc2)C(=O)C1 (centres undefined),> 100 µM (inactive),,> 100 µM (inactive),,> 100 µM (inactive),> 100 µM (inactive),18.7 µM (inactive),> 100 µM (inactive),,,,> 100 µM (inactive),> 100 µM (inactive),> 100 µM (inactive),> 100 µM (inactive),,> 100 µM (inactive),> 100 µM (inactive),> 100 µM (inactive),> 100 µM (inactive)
Cc1[nH]c2ccccc2c1C1CC(=O)NC1=O (centres undefined),> 100 µM (inactive),,> 100 µM (inactive),,> 100 µM (inactive),> 100 µM (inactive),,> 100 µM (inactive),,,> 100 µM (inactive),> 100 µM (inactive),> 100 µM (inactive),> 100 µM (inactive),> 100 µM (inactive),,> 100 µM (inactive),> 100 µM (inactive),> 100 µM (inactive),> 100 µM (inactive)
COc1ccc(C[C@@H](C(=O)NCCNC(=O)C(CC(C)C)N(C)C(=O)[C@@H]2CCCN2C(=O)[C@H](C)O)N(C)C(=O)[C@@H]2CCCN2C(=O)[C@H](CC(C)C)NC(=O)C(C)NC(=O)OCc2ccccc2)cc1 (some centres undefined) (Cbz-[ξA]LP[NMeY](Me)-{Ethylenediamine-ξNMeL-Pro-Lac}),> 100 µM (inactive),> 100 µM (inactive),34.6 µM (inactive),> 100 µM (inactive),> 100 µM (inactive),> 100 µM (inactive),68.9 µM (inactive),40.6 µM (inactive),43.9 µM (inactive),66.8 µM (inactive),> 100 µM (inactive),> 100 µM (inactive),> 100 µM (inactive),> 100 µM (inactive),> 100 µM (inactive),54.3 µM (inactive),> 100 µM (inactive),> 100 µM (inactive),46.1 µM (inactive),
COc1ccc(C[C@@H](C(=O)N[C@@H](C)C(N)=O)N(C)C(=O)[C@@H]2CCCN2C(=O)[C@H](CC(C)C)NC(=O)C(C)NC(=O)OCc2ccccc2)cc1 (some centres undefined) (Cbz-[ξA]LP[NMeY](Me)A-NH2),> 100 µM (inactive),> 100 µM (inactive),> 100 µM (inactive),> 100 µM (inactive),> 100 µM (inactive),> 100 µM (inactive),> 100 µM (inactive),84.3 µM (inactive),> 100 µM (inactive),> 100 µM (inactive),> 100 µM (inactive),> 100 µM (inactive),> 100 µM (inactive),> 100 µM (inactive),> 100 µM (inactive),> 100 µM (inactive),> 100 µM (inactive),> 100 µM (inactive),> 10 µM (inactive),
